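A five-concentration, 48-hour dose response in 96-well plates underlies each endpoint, interpolated linearly between surrounding concentrations. Abbreviation: GI50, concentration required for 50% inhibition of growth.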 Activity calls are given as the source filed them. No stated cut-off is given here; in the data, active = GI50 up to about 1.1 µM and inactive = higher.
How the values were obtained:
Assay in all cases: growth of human tumour cells (NCI), 48 h
786-0 = test system: 786-0
A498 = test system: A498
A549 = test system: A549
ACHN = test system: ACHN
CAKI-1 = test system: CAKI-1
CCRF-CEM = test system: CCRF-CEM
COLO 205 = test system: COLO 205
DLD-1 = test system: DLD-1
DMS-114 = test system: DMS-114
DMS-273 = test system: DMS-273
EKVX = test system: EKVX
HCC 2998 = test system: HCC 2998
HCT-116 = test system: HCT-116
HCT-15 = test system: HCT-15
HOP-62 = test system: HOP-62
HOP-92 = test system: HOP-92
HT-29 = test system: HT-29
IGROV-1 = test system: IGROV-1
K562 = test system: K562
KM-20L2 = test system: KM-20L2
KM12 = test system: KM12
LXFL 529 = test system: LXFL 529
M14 = test system: M14
M19-MEL = test system: M19-MEL
MOLT-4 = test system: MOLT-4
Malme-3M = test system: Malme-3M
NCI-H226 = test system: NCI-H226
NCI-H23 = test system: NCI-H23
NCI-H460 = test system: NCI-H460
NCI-H522 = test system: NCI-H522
OVCAR-3 = test system: OVCAR-3
OVCAR-4 = test system: OVCAR-4
OVCAR-5 = test system: OVCAR-5
OVCAR-8 = test system: OVCAR-8
RPMI-8226 = test system: RPMI-8226
SF-268 = test system: SF-268
SF-539 = test system: SF-539
SK-MEL-28 = test system: SK-MEL-28
SK-MEL-2 = test system: SK-MEL-2
SK-MEL-5 = test system: SK-MEL-5
SK-OV-3 = test system: SK-OV-3
SN12C = test system: SN12C
SNB-19 = test system: SNB-19
SNB-75 = test system: SNB-75
SR = test system: SR
SW-620 = test system: SW-620
U-251 = test system: U-251
UACC-257 = test system: UACC-257
UACC-62 = test system: UACC-62
UO-31 = test system: UO-31
XF498 = test system: XF498
HL-60 = test system: HL-60
RXF 393 = test system: RXF 393
SF-295 = test system: SF-295
SNB-78 = test system: SNB-78
TK-10 = test system: TK-10
LOX IMVI = test system: LOX IMVI

COc1ccc(/C=C(\NC(=O)c2ccccc2)c2nc3ccccc3[nH]2)cc1
GI50 (786-0): 44 µM (inactive) | GI50 (A498): > 100 µM (inactive) | GI50 (A549): 41.6 µM (inactive) | GI50 (ACHN): 42.6 µM (inactive) | GI50 (CAKI-1): 36.9 µM (inactive) | GI50 (CCRF-CEM): 42.4 µM (inactive) | GI50 (COLO 205): 24 µM (inactive) | GI50 (DLD-1): 33.6 µM (inactive) | GI50 (DMS-114): 24.8 µM (inactive) | GI50 (DMS-273): 29.5 µM (inactive) | GI50 (EKVX): 35.9 µM (inactive) | GI50 (HCC 2998): 41.9 µM (inactive) | GI50 (HCT-116): 35.2 µM (inactive) | GI50 (HCT-15): 48.2 µM | GI50 (HOP-62): 46.2 µM (inactive) | GI50 (HOP-92): 26.9 µM (inactive) | GI50 (HT-29): 36.4 µM (inactive) | GI50 (IGROV-1): 30.5 µM (inactive) | GI50 (K562): 34.9 µM (inactive) | GI50 (KM-20L2): 38.5 µM (inactive) | GI50 (KM12): 39.6 µM (inactive) | GI50 (LXFL 529): 27.4 µM (inactive) | GI50 (M14): 33.4 µM (inactive) | GI50 (M19-MEL): 35.6 µM (inactive) | GI50 (MOLT-4): 24.5 µM (inactive) | GI50 (Malme-3M): 36.3 µM (inactive) | GI50 (NCI-H226): 72.9 µM (inactive) | GI50 (NCI-H23): 19.1 µM (inactive) | GI50 (NCI-H460): 34.2 µM (inactive) | GI50 (NCI-H522): 24.7 µM (inactive) | GI50 (OVCAR-3): 34.5 µM (inactive) | GI50 (OVCAR-4): 17.3 µM (inactive) | GI50 (OVCAR-5): 29 µM (inactive) | GI50 (OVCAR-8): 39.3 µM (inactive) | GI50 (RPMI-8226): 18.9 µM (inactive) | GI50 (SF-268): 37 µM (inactive) | GI50 (SF-539): 39.1 µM (inactive) | GI50 (SK-MEL-28): 14.6 µM (inactive) | GI50 (SK-MEL-2): 21.1 µM (inactive) | GI50 (SK-MEL-5): 14.8 µM (inactive) | GI50 (SK-OV-3): 45.1 µM (inactive) | GI50 (SN12C): 41.3 µM (inactive) | GI50 (SNB-19): 37.3 µM (inactive) | GI50 (SNB-75): 29.4 µM (inactive) | GI50 (SR): 28.1 µM (inactive) | GI50 (SW-620): 46.6 µM (inactive) | GI50 (U-251): 30.3 µM (inactive) | GI50 (UACC-257): 23.8 µM (inactive) | GI50 (UACC-62): 24 µM (inactive) | GI50 (UO-31): 22.4 µM (inactive) | GI50 (XF498): 18.5 µM (inactive)

CC(C)(C)CC(C)(C)c1cc2c(O)c(c1)Cc1cc(C(C)(C)CC(C)(C)C)cc(c1O)Cc1cc(C(C)(C)CC(C)(C)C)cc(c1O)Cc1cc(C(C)(C)CC(C)(C)C)cc(c1O)Cc1cc(C(C)(C)CC(C)(C)C)cc(c1O)Cc1cc(C(C)(C)CC(C)(C)C)cc(c1O)Cc1cc(C(C)(C)CC(C)(C)C)cc(c1O)Cc1cc(C(C)(C)CC(C)(C)C)cc(c1O)C2
GI50 (786-0): > 100 µM (inactive) | GI50 (A549): > 100 µM (inactive) | GI50 (ACHN): > 100 µM (inactive) | GI50 (CCRF-CEM): > 100 µM (inactive) | GI50 (COLO 205): > 100 µM (inactive) | GI50 (DLD-1): > 100 µM (inactive) | GI50 (DMS-273): > 100 µM (inactive) | GI50 (EKVX): > 100 µM (inactive) | GI50 (HCC 2998): > 100 µM (inactive) | GI50 (HCT-116): > 100 µM (inactive) | GI50 (HCT-15): > 100 µM | GI50 (HL-60): > 100 µM (inactive) | GI50 (HOP-62): > 100 µM (inactive) | GI50 (HOP-92): > 100 µM (inactive) | GI50 (HT-29): > 100 µM (inactive) | GI50 (IGROV-1): > 100 µM (inactive) | GI50 (K562): > 100 µM (inactive) | GI50 (KM-20L2): > 100 µM (inactive) | GI50 (KM12): > 100 µM (inactive) | GI50 (LXFL 529): > 100 µM (inactive) | GI50 (M14): > 100 µM (inactive) | GI50 (M19-MEL): > 100 µM (inactive) | GI50 (MOLT-4): > 100 µM (inactive) | GI50 (Malme-3M): > 100 µM (inactive) | GI50 (NCI-H23): > 100 µM (inactive) | GI50 (NCI-H460): > 100 µM (inactive) | GI50 (NCI-H522): > 100 µM (inactive) | GI50 (OVCAR-3): > 100 µM (inactive) | GI50 (OVCAR-4): > 100 µM (inactive) | GI50 (OVCAR-5): > 100 µM (inactive) | GI50 (OVCAR-8): > 100 µM (inactive) | GI50 (RPMI-8226): > 100 µM (inactive) | GI50 (RXF 393): > 100 µM (inactive) | GI50 (SF-268): > 100 µM (inactive) | GI50 (SF-295): > 100 µM (inactive) | GI50 (SF-539): > 100 µM (inactive) | GI50 (SK-MEL-28): > 100 µM (inactive) | GI50 (SK-MEL-2): > 100 µM (inactive) | GI50 (SK-MEL-5): > 100 µM (inactive) | GI50 (SN12C): > 100 µM (inactive) | GI50 (SNB-19): > 100 µM (inactive) | GI50 (SNB-75): 23.9 µM (inactive) | GI50 (SNB-78): > 100 µM (inactive) | GI50 (SW-620): > 100 µM (inactive) | GI50 (TK-10): > 100 µM (inactive) | GI50 (U-251): > 100 µM (inactive) | GI50 (UACC-257): > 100 µM (inactive) | GI50 (UACC-62): > 100 µM (inactive) | GI50 (UO-31): > 100 µM (inactive) | GI50 (XF498): > 100 µM (inactive)

Sc1nnc(/C=C/c2ccc(Cl)c(Cl)c2)[nH]1
GI50 (786-0): > 100 µM (inactive) | GI50 (A498): 53.8 µM (inactive) | GI50 (A549): > 100 µM (inactive) | GI50 (ACHN): > 100 µM (inactive) | GI50 (CCRF-CEM): > 100 µM (inactive) | GI50 (COLO 205): 0.0202 µM (active) | GI50 (DLD-1): > 100 µM (inactive) | GI50 (DMS-114): 0.0298 µM (active) | GI50 (DMS-273): > 100 µM (inactive) | GI50 (EKVX): > 100 µM (inactive) | GI50 (HCC 2998): < 0.01 µM (active) | GI50 (HCT-116): > 100 µM (inactive) | GI50 (HCT-15): 87.5 µM | GI50 (HL-60): > 100 µM (inactive) | GI50 (HOP-62): 41.4 µM (inactive) | GI50 (HT-29): > 100 µM (inactive) | GI50 (IGROV-1): > 100 µM (inactive) | GI50 (K562): > 100 µM (inactive) | GI50 (KM-20L2): > 100 µM (inactive) | GI50 (KM12): > 100 µM (inactive) | GI50 (LOX IMVI): > 100 µM (inactive) | GI50 (MOLT-4): 59.4 µM (inactive) | GI50 (Malme-3M): > 100 µM (inactive) | GI50 (NCI-H226): > 100 µM (inactive) | GI50 (NCI-H23): > 100 µM (inactive) | GI50 (NCI-H460): > 100 µM (inactive) | GI50 (NCI-H522): 94 µM (inactive) | GI50 (OVCAR-3): 77.1 µM (inactive) | GI50 (OVCAR-5): > 100 µM (inactive) | GI50 (OVCAR-8): > 100 µM (inactive) | GI50 (RXF 393): > 100 µM (inactive) | GI50 (SF-268): > 100 µM (inactive) | GI50 (SF-295): > 100 µM (inactive) | GI50 (SF-539): > 100 µM (inactive) | GI50 (SK-MEL-28): > 100 µM (inactive) | GI50 (SK-MEL-2): > 100 µM (inactive) | GI50 (SK-MEL-5): 44.8 µM (inactive) | GI50 (SK-OV-3): 0.0173 µM (active) | GI50 (SN12C): > 100 µM (inactive) | GI50 (SNB-19): > 100 µM (inactive) | GI50 (SW-620): > 100 µM (inactive) | GI50 (TK-10): > 100 µM (inactive) | GI50 (U-251): 58.5 µM (inactive) | GI50 (UACC-257): > 100 µM (inactive) | GI50 (UACC-62): > 100 µM (inactive) | GI50 (UO-31): 71.3 µM (inactive) | GI50 (XF498): 30.9 µM (inactive)

Source: ChEMBL document CHEMBL1201862, “PubChem BioAssay data set” (2004)
